Drawing on ChEMBL document CHEMBL2176972, “Potential use of selective and nonselective Pim kinase inhibitors for cancer therapy” (J Med Chem, 2012), this text covers Ki and IC50 for three compounds.

The target of assay [1] is Serine/threonine-protein kinase pim-2 (Homo sapiens, UniProt Q9P1W9). The assay can be described thus: Competitive inhibition of PIM2 in presence of ATP.
Assay [2] deals with T1, Serine/threonine-protein kinase haspin (Homo sapiens, UniProt Q8TF76).
T1 sequence (Q8TF76 whole entry): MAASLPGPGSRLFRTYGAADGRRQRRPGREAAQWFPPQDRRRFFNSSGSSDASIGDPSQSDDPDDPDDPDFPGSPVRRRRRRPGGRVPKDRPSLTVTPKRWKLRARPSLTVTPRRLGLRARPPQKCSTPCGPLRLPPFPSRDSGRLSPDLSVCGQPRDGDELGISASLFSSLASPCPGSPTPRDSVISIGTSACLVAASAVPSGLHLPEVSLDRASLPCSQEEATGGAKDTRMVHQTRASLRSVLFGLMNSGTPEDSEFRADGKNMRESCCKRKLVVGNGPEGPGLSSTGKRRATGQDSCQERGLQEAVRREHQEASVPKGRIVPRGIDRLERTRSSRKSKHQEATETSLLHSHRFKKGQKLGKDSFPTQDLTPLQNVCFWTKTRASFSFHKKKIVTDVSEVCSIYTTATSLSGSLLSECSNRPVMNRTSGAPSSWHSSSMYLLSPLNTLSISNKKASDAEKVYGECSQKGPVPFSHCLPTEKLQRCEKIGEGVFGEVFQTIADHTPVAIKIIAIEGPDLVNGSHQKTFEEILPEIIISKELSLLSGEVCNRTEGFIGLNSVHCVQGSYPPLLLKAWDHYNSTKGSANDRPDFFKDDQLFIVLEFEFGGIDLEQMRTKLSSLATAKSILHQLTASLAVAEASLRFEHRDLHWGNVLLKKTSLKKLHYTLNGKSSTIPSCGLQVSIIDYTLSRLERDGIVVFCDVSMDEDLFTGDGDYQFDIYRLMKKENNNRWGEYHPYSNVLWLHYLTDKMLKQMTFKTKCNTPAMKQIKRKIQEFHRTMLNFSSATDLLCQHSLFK
In words: Inhibition of haspin.

The target in assay [3] is Serine/threonine-protein kinase pim-1 (Homo sapiens, UniProt P11309). In words: Competitive inhibition of PIM1 using KKRNRTLTV as substrate after 5 mins by scintillation counter in presence of [gamma-32P]ATP.
The target in assay [4] is Casein kinase II subunit alpha (Homo sapiens, UniProt P68400). In words: Competitive inhibition of CK2alpha using RRREDEESDDEE as substrate after 5 mins by scintillation counter in presence of [gamma-32P]ATP.

Broadly, the Ki is a measure of affinity in units of concentration, obtained from inhibition or displacement. `O=C1NC(=O)/C(=C/c2cccc(C(F)(F)F)c2)S1`: the Ki in assay [1] was found to be 100 nM. Usually IC50 stands for the concentration needed to halve the response being measured. In assay [2], `CN1CCC(CNc2ccc3ncc(-c4cccc(OC(F)(F)F)c4)n3n2)CC1` [SGI-1776] came in with an IC50 of 34 nM. Consider `O=C(O)c1cc2c(ccc3cc4c(ccc5oc(C(=O)O)cc54)cc32)o1`, for which the values for the IC50 in assay [3] and in assay [4] were 20 nM and 63 nM, respectively.
